Measured values published in the NIST ThermoML archive (doi:10.1021/je060472e).
Where “and” joins values, the source holds several entries; their conditions need not be identical. Identical values can stand only once. Numbers after ± are expanded uncertainties.

Key:
[1] = for vapor or sublimation pressure: Closed cell (Static) method; for Normal melting temperature: DTA
[2] = Molar enthalpy of transition or fusion; settings: Crystal; DSC

COC(=O)c1cccnc1 [3-pyridinecarboxylic acid methyl ester]
vapor or sublimation pressure, [1]
Settings	Crystal	Liquid
273.23 K	0.000651 ± 9.6e-05 kPa and 0.000658 ± 9.6e-05 kPa	–
278.2 K	0.001228 ± 0.00011 kPa and 0.001214 ± 0.00011 kPa	–
283.18 K	0.002269 ± 0.00013 kPa	–
283.19 K	0.002282 ± 0.00013 kPa and 0.002271 ± 0.00013 kPa	–
288.16 K	0.00406 ± 0.00019 kPa and 0.004076 ± 0.00019 kPa	–
293.16 K	0.007304 ± 0.0003 kPa and 0.007318 ± 0.0003 kPa	–
298.14 K	0.0127 ± 0.00051 kPa	0.01819 ± 0.00059 kPa
298.15 K	–	0.01819 ± 0.00059 kPa
298.16 K	0.01269 ± 0.00051 kPa	–
303.13 K	–	0.02715 ± 0.00073 kPa and 0.02712 ± 0.00073 kPa
303.14 K	0.0216 ± 0.00065 kPa and 0.02159 ± 0.00065 kPa	–
305.12 K	–	0.03186 ± 0.0008 kPa
305.13 K	–	0.03188 ± 0.0008 kPa
307.11 K	–	0.03712 ± 0.00088 kPa and 0.03709 ± 0.00088 kPa
308.1 K	0.03586 ± 0.00087 kPa	–
308.11 K	0.03587 ± 0.00087 kPa	–
309.1 K	–	0.0431 ± 0.00098 kPa and 0.04306 ± 0.00098 kPa
310.6 K	0.04566 ± 0.001 kPa	–
310.61 K	0.04595 ± 0.001 kPa and 0.04557 ± 0.001 kPa	–
311.07 K	–	0.0502 ± 0.0011 kPa
311.08 K	–	0.05006 ± 0.0011 kPa
313.07 K	–	0.05817 ± 0.0012 kPa
313.08 K	–	0.05817 ± 0.0012 kPa
315.06 K	–	0.06722 ± 0.0014 kPa
315.07 K	–	0.06704 ± 0.0014 kPa
317.04 K	–	0.07707 ± 0.0015 kPa
317.05 K	–	0.07715 ± 0.0015 kPa
318.08 K	–	0.08317 ± 0.0016 kPa
318.11 K	–	0.0833 ± 0.0016 kPa
319.09 K	–	0.08886 ± 0.0017 kPa
321.08 K	–	0.102 ± 0.0019 kPa and 0.103 ± 0.0019 kPa
323.09 K	–	0.1177 ± 0.0021 kPa
324.06 K	–	0.1247 ± 0.0022 kPa and 0.1246 ± 0.0022 kPa

Settings	Normal melting temperature [°C]
[1], Crystal	39.5 ± 0.4

Settings	Molar enthalpy of transition or fusion [kcal/mol]
[2]	4.61 ± 0.167

COC(=O)c1ccccn1 [methyl 2-pyridinecarboxylate]
vapor or sublimation pressure, [1]
Settings	Crystal	Liquid
273.21 K	–	0.00051 ± 9.4e-05 kPa and 0.000505 ± 9.4e-05 kPa
278.18 K	–	0.00086 ± 0.0001 kPa and 0.000856 ± 0.0001 kPa
278.2 K	0.000582 ± 9.6e-05 kPa and 0.00058 ± 9.6e-05 kPa	–
280.67 K	0.000793 ± 0.0001 kPa	–
280.68 K	0.000794 ± 0.0001 kPa	–
283.15 K	0.001087 ± 0.00011 kPa	0.001403 ± 0.00011 kPa
283.16 K	0.001086 ± 0.00011 kPa	0.001399 ± 0.00011 kPa
285.65 K	0.001476 ± 0.00011 kPa and 0.001472 ± 0.00011 kPa	–
288.13 K	–	0.002242 ± 0.00013 kPa
288.14 K	0.001988 ± 0.00013 kPa	0.002246 ± 0.00013 kPa
288.15 K	0.001989 ± 0.00013 kPa	–
290.63 K	0.002681 ± 0.00015 kPa	–
290.65 K	0.002682 ± 0.00015 kPa	–
293.12 K	–	0.00357 ± 0.00017 kPa
293.13 K	–	0.003566 ± 0.00017 kPa
298.15 K	–	0.005628 ± 0.00024 kPa and 0.005601 ± 0.00024 kPa
303.15 K	–	0.008522 ± 0.00035 kPa and 0.008506 ± 0.00035 kPa
308.08 K	–	0.0128 ± 0.00051 kPa
308.11 K	–	0.01279 ± 0.00051 kPa
313.12 K	–	0.01919 ± 0.00061 kPa
313.13 K	–	0.01916 ± 0.00061 kPa
318.09 K	–	0.02771 ± 0.00074 kPa and 0.02763 ± 0.00074 kPa
323.05 K	–	0.03968 ± 0.00092 kPa
328.04 K	–	0.05628 ± 0.0012 kPa and 0.05632 ± 0.0012 kPa
333.01 K	–	0.0787 ± 0.0015 kPa
333.02 K	–	0.07876 ± 0.0015 kPa
337.99 K	–	0.1088 ± 0.002 kPa
340.47 K	–	0.127 ± 0.0023 kPa

Settings	Normal melting temperature [°C]
[1], Crystal	16.1 ± 0.5

Settings	Molar enthalpy of transition or fusion [kcal/mol]
[2]	4.02 ± 0.0956

COC(=O)c1ccncc1 [methyl 4-pyridinecarboxylate]
[1], Liquid
Settings	vapor or sublimation pressure
273.26 K	0.002588 ± 0.00014 kPa
275.74 K	0.003349 ± 0.00016 kPa and 0.003323 ± 0.00016 kPa
278.22 K	0.004243 ± 0.00019 kPa
278.23 K	0.004253 ± 0.00019 kPa
280.71 K	0.005373 ± 0.00023 kPa and 0.005383 ± 0.00023 kPa
283.19 K	0.006753 ± 0.00028 kPa
285.66 K	0.008443 ± 0.00034 kPa
288.16 K	0.01054 ± 0.00042 kPa
290.65 K	0.01308 ± 0.00051 kPa
293.15 K	0.01615 ± 0.00056 kPa
293.16 K	0.01617 ± 0.00056 kPa
295.65 K	0.0199 ± 0.00062 kPa
298.13 K	0.02427 ± 0.00069 kPa
298.14 K	0.02428 ± 0.00069 kPa
300.63 K	0.0296 ± 0.00077 kPa and 0.02961 ± 0.00077 kPa
303.12 K	0.03595 ± 0.00087 kPa
303.13 K	0.03597 ± 0.00087 kPa
305.62 K	0.04347 ± 0.00098 kPa
305.63 K	0.04348 ± 0.00098 kPa
308.09 K	0.05219 ± 0.0011 kPa
310.59 K	0.06266 ± 0.0013 kPa
310.6 K	0.0627 ± 0.0013 kPa
313.07 K	0.07495 ± 0.0015 kPa and 0.0749 ± 0.0015 kPa
315.54 K	0.08924 ± 0.0017 kPa
315.56 K	0.08934 ± 0.0017 kPa
318.03 K	0.1062 ± 0.002 kPa
320.52 K	0.1256 ± 0.0023 kPa

Settings	Normal melting temperature [°C]
[1], Crystal	10.2 ± 0.9

Settings	Molar enthalpy of transition or fusion [kcal/mol]
[2]	3.49 ± 0.167
